Assay results published in patent US11440923B2, “Substituted macrocyclic indole derivatives” (Bayer Aktiengesellschaft, priority 2017, dated 2022).

Tests used:
BCL-2 = BCL-2 (Homo sapiens (Human), UniProt P10415); assay: Protein-protein interaction assay BCL-2/Bad BH3 peptide (BCL-2 assay, TR-FRET); format: binding; details: read-out: BCL-2 Assay IC50 (median)
Procedure: Assay 3 Protein-Protein Interaction Assay: BCL-2/Bad BH3 Peptide (BCL-2 Assay)
The dose-dependent inhibition by the compounds described in this invention of the interaction between BCL-2 and the BH3 domain of Bad (both human) was determined using a steady state binding competition assay with time-resolved fluorescence energy transfer (TR-FRET) readout. For that purpose BCL-2 (amino acids 1-211, C-terminal fused to a hexahistidine (6×His) tag (SEQ ID 5) and a synthetic Bad BH3-derived peptide of sequence Biotin-PEG2-PEG2-[…]-Nle-[…]-amide (SEQ ID 4) served as protein receptor and tracer ligand respectively. The recombinant BCL-2 protein (expressed in E. coli) was purchased from BPS Bioscience (San Diego, Calif., USA). The Bad BH3-derived peptide can be obtained from e.g. Biosyntan (Berlin, Germany).
In the assay 11 different concentrations of each compound (0.1 nM, 0.33 nM, 1.1 nM, 3.8 nM, 13 nM, 44 nM, 0.15 μM, 0.51 μM, 1.7 μM, 5.9 μM and 20 μM) were typically measured as duplicates in the same microtiter plate. For that, 100-fold concentrated DMSO solutions were prepared by serial dilutions (1:3.4) of a 2 mM stock solution in a clear, 384-well microtiter plate (Greiner Bio-One, Frickenhausen, Germany). From there, 50 nl were transferred in a dark test plate (Greiner Bio-One, Frickenhausen, Germany). The assay was initiated by addition of 2 μL of a 2,5-fold concentrated His-BCL-2 solution (usually for a 1 nM end concentration in 5 μL reaction volume) in aqueous assay buffer [50 mM Tris/HCl pH 7, 100 mM sodium chloride (NaCl), 50 mM potassium fluoride (KF), 0.005% Tween-20, 2 mM DTT, 0.1% bovine gamma globulin (BGG)] to the compounds in the assay plate. This was followed by a 10-minute incubation step at 22° C. for pre-equilibration of the putative complex between His-BCL-2 and the compounds. After that, 3 μL of a 1.67-fold concentrated solution (in assay buffer) consisting of Bad BH3-derived peptide (1 nM end concentration) and TR-FRET detection reagents [1.67 nM anti-His-Eu cryptate and 1.67 nM streptavidin-XL665 (both from Cisbio Bioassays, Codolet, France)], were added.
The mixture was incubated in the dark for one hour at 22° C. and then overnight at 4° C. The formation of BCL-2/Bad complexes was determined by measuring the resonance energy transfer of the anti-His-Eu-cryptate antibody to the streptavidin-XL665 present in the reaction. For that purpose, the fluorescence emission at 620 nm and 665 nm after excitation at 330-350 nm was measured in a TR-FRET measuring instrument, for instance a Rubystar or a Pherastar (both from BMG Lab Technologies, Offenburg, Germany) or a Viewlux (Perkin-Elmer). The ratio of the emission at 665 nm and at 622 nm was used as indicator of the amount of BCL-2/Bad complexes present.
The resulting data (ratio) were normalized, taking 0% inhibition as the mean value of control measurements (usually 32 data points) where all reagents were included. In this case 50 nl DMSO were used instead of compounds. […] IC50 values were determined by regression analysis based on a 4 parameter equation (minimum, maximum, IC50, Hill; Y=Max+(Min−Max)/(1+(X/IC50)^Hill) using the Screener Software (Genedata).

SUDHL5 cells [1] = assay: Induction of caspase-3/7 activity in SUDHL5 cells (Assay 4); format: cell-based; details: Homo sapiens, SU-DHL-5, 3 h, caspase-3/7 induction, 3 h; read-out: Caspase SUDHL5 EC50 (median)
How it was run: (§1)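 Caspase-3/7 activity measured in DLBCL lines after 3 h compound exposure at 37 °C, following overnight plating; Caspase-Glo 3/7 luminescence read after 1 h at 37 °C. Medium-only background subtracted, values normalized to mean of DMSO-treated cells.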

SUDHL10 cells = assay: Induction of caspase-3/7 activity in SUDHL10 cells (Assay 4); format: cell-based; details: Homo sapiens, SU-DHL10, 3 h, caspase-3/7 induction, 3 h; read-out: Caspase SUDHL10 EC50 (median)
How it was run: as §1

SUDHL5 cells [2] = assay: Antiproliferation assay SUDHL5 (Assay 7); format: cell-based; details: Homo sapiens, SU-DHL-5, 72 h, 72 h, CellTiter-Glo; read-out: Antiproli SUDHL5 IC50 (median)
How it was run: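 Luminescent viability signal (CellTiter-Glo) after 72 h of treatment served as read-out. IC50 values were derived with day 0 luminescence as CI and DMSO wells as C0.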

Sequence of BCL-2 (P10415 1-211): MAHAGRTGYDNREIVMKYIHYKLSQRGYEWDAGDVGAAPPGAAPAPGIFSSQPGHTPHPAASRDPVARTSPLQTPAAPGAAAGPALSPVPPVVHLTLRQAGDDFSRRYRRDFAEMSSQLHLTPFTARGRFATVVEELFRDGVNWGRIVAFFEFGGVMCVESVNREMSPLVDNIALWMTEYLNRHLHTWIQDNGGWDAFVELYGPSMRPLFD

Compound | IC50 (BCL-2) | EC50 (SUDHL5 cells [1]) | EC50 (SUDHL10 cells) | IC50 (SUDHL5 cells [2])
CCc1c2c(nn1C)C(CCN1CCOCC1)OCCCCn1c(C(=O)O)c(CCCOc3cccc4ccccc34)c3ccc(F)c-2c31 (racemic) [Example 10, (rac)-3-ethyl-4-fluoro-2-methyl-15-[2-(morpholin-4-yl)ethyl]-7-[3-(naphthalen-1-yloxy)propyl]-2,10,11,12,13,15-hexahydropyrazolo[4′,3′:9,10][1,6]oxazacycloundecino[8,7,6-hi]indole-8-carboxylic Acid] | > 20000 nM | 110 nM | 220 nM | 160 nM
Cc1c2c(nn1C)C(CCN1CCOCC1)OCCCCn1c(C(=O)O)c(CCCOc3cccc4cc(F)ccc34)c3ccc(Cl)c-2c31 (racemic) [Example 16, (rac)-4-chloro-7-{3-[(6-fluoronaphthalen-1-yl)oxy]propyl}-2,3-dimethyl-15-[2-(morpholin-4-yl)ethyl]-2,10,11,12,13,15-hexahydropyrazolo[4′,3′:9,10][1,6]oxazacycloundecino[8,7,6-hi]indole-8-carboxylic Acid] | > 20000 nM | 6.8 nM | 19 nM | 19 nM
Cc1c2c(nn1C)C(CCN1CCOCC1)OCCCCn1c(C(=O)O)c(CCCOc3cccc4cc(F)ccc34)c3ccc(F)c-2c31 (racemic) [Example 19, (rac)-4-fluoro-7-{3-[(6-fluoronaphthalen-1-yl)oxy]propyl}-2,3-dimethyl-15-[2-(morpholin-4-yl)ethyl]-2,10,11,12,13,15-hexahydropyrazolo[4′,3′:9,10][1,6]oxazacycloundecino[8,7,6-hi]indole-8-carboxylic Acid] | > 20000 nM | 73 nM | 79 nM | 77 nM
CCc1c2c(nn1C)C(CCN1CCOCC1)OCCCCn1c(C(=O)O)c(CCCOc3cccc4cc(F)ccc34)c3ccc(Cl)c-2c31 (racemic) [Example 22, (rac)-4-chloro-3-ethyl-7-{3-[(6-fluoronaphthalen-1-yl)oxy]propyl}-2-methyl-15-[2-(morpholin-4-yl)ethyl]-2,10,11,12,13,15-hexahydropyrazolo[4′,3′:9,10][1,6]oxazacycloundecino[8,7,6-hi]indole-8-carboxylic Acid] | > 20000 nM | 10 nM | 20 nM | 13 nM
CCC1OCCCCn2c(C(=O)O)c(CCCOc3cccc4ccccc34)c3ccc(Cl)c(c32)-c2c1nn(C)c2C (racemic) [Example 25, (rac)-4-chloro-15-ethyl-2,3-dimethyl-7-{3-[(naphthalen-1-yl)oxy]propyl}-2,10,11,12,13,15-hexahydropyrazolo[4′,3′:9,10][1,6]oxazacycloundecino[8,7,6-hi]indole-8-carboxylic Acid] | > 20000 nM | 2000 nM | 10000 nM | 2300 nM
CCc1c2c(nn1C)C(CCOC)OCCCCn1c(C(=O)O)c(CCCOc3cccc4cc(F)ccc34)c3ccc(Cl)c-2c31 (racemic) [Example 41, (rac)-4-chloro-3-ethyl-7-{3-[(6-fluoronaphthalen-1-yl)oxy]propyl}-(15-rac)-(2-methoxyethyl)-2-methyl-2,10,11,12,13,15-hexahydropyrazolo[4′,3′:9,10][1,6]oxazacycloundecino[8,7,6-hi]indole-8-carboxylic Acid] | 18100 nM | 97 nM | 130 nM | 160 nM

Next, values leading:

IC50 (BCL-2) | EC50 (SUDHL5 cells [1]) | EC50 (SUDHL10 cells) | IC50 (SUDHL5 cells [2]) | Compound
> 20000 nM | 77 nM | 140 nM | 110 nM | Cc1c2c(nn1C)C(CCN1CCOCC1)OCCCCn1c(C(=O)O)c(CCCOc3cccc4ccccc34)c3ccc(Cl)c-2c31 (racemic) [Example 13, (rac)-4-chloro-2,3-dimethyl-15-[2-(morpholin-4-yl)ethyl]-7-{3-[(naphthalen-1-yl)oxy]propyl}-2,10,11,12,13,15-hexahydropyrazolo[4′,3′:9,10][1,6]oxazacycloundecino[8,7,6-hi]indole-8-carboxylic Acid]
> 20000 nM | 120 nM | 980 nM | 410 nM | Cc1c2c(nn1C)C(CCO)OCCCCn1c(C(=O)O)c(CCCOc3cccc4ccccc34)c3ccc(Cl)c-2c31 (racemic) [Example 26, (rac)-4-chloro-15-(2-hydroxyethyl)-2,3-dimethyl-7-{3-[(naphthalen-1-yl)oxy]propyl}-2,10,11,12,13,15-hexahydropyrazolo[4′,3′:9,10][1,6]oxazacycloundecino[8,7,6-hi]indole-8-carboxylic Acid]
> 20000 nM | 2800 nM | 7200 nM | 2700 nM | Cc1c2c(nn1C)C(C1CC1)OCCCCn1c(C(=O)O)c(CCCOc3cccc4ccccc34)c3ccc(Cl)c-2c31 (racemic) [Example 28, (rac)-4-Chloro-15-cyclopropyl-2,3-dimethyl-7-{3-[(naphthalen-1-yl)oxy]propyl}-2,10,11,12,13,15-hexahydropyrazolo[4′,3′:9,10][1,6]oxazacycloundecino[8,7,6-hi]indole-8-carboxylic Acid]
> 20000 nM | 250 nM | 210 nM | 510 nM | COCCC1OCCCCn2c(C(=O)O)c(CCCOc3cccc4ccccc34)c3ccc(Cl)c(c32)-c2c1nn(C)c2C (racemic) [Example 37, (rac)-4-chloro-(15-rac)-(2-methoxyethyl)-2,3-dimethyl-7-{3-[(naphthalen-1-yl)oxy]propyl}-2,10,11,12,13,15-hexahydropyrazolo[4′,3′:9,10][1,6]oxazacycloundecino[8,7,6-hi]indole-8-carboxylic Acid]
> 20000 nM | 120 nM | 150 nM | 140 nM | CCc1c2c(nn1C)C(CCO)OCCCCn1c(C(=O)O)c(CCCOc3cccc4cc(F)ccc34)c3ccc(Cl)c-2c31 (racemic) [Example 44, (rac)-4-chloro-3-ethyl-7-{3-[(6-fluoronaphthalen-1-yl)oxy]propyl}-(15-rac)-(2-hydroxyethyl)-2-methyl-2,10,11,12,13,15-hexahydropyrazolo[4′,3′:9,10][1,6]oxazacycloundecino[8,7,6-hi]indole-8-carboxylic Acid]
> 20000 nM | 33 nM | 21 nM | 42 nM | CCc1c2c(nn1C)C(CCN1CCOCC1)OCCCCn1c(C(=O)O)c(CCCOc3cccc4cc(F)ccc34)c3ccc(F)c-2c31 (racemic) [Example 49, (rac)-3-Ethyl-4-fluoro-7-{3-[(6-fluoronaphthalen-1-yl)oxy]propyl}-2-methyl-(15-rac)-[2-(morpholin-4-yl)ethyl]-2,10,11,12,13,15-hexahydropyrazolo[4′,3′:9,10][1,6]oxazacycloundecino[8,7,6-hi]indole-8-carboxylic Acid]
15900 nM | 420 nM | 160 nM | 400 nM | CCc1c2c(nn1C)C(CC(C)(C)O)OCCCCn1c(C(=O)O)c(CCCOc3cccc4cc(F)ccc34)c3ccc(Cl)c-2c31 (racemic) [Example 52, (rac)-4-chloro-3-ethyl-7-{3-[(6-fluoronaphthalen-1-yl)oxy]propyl}-(15-rac)-(2-hydroxy-2-methylpropyl)-2-methyl-2,10,11,12,13,15-hexahydropyrazolo[4′,3′:9,10][1,6]oxazacycloundecino[8,7,6-hi]indole-8-carboxylic Acid]
